Test results reported in patent US20090047243A1, “COMBINATIONS FOR THE TREATMENT OF B-CELL PROLIFERATIVE DISORDERS” (priority 2007, published 2009).

Assays:
[1] = system: human multiple myeloma cells (MM.1S); experiment: Anti-proliferation assay (ATPLite, 72 h); assay type: cell-based; design: key to synergy score / synergy (score), PDEi × HE-NECA: S = lnfX·lnfY·ΣIdata(Idata−ILoewe), volume over Loewe additivity
Outline: (§1)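 ATPLite luminescence readout; ANBL6 medium + 10 ng/ml IL-6. Single agents tested at 12 concentrations, 2- or 3-fold serial dilutions. % inhibition vs untreated-well mean.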

[2] = system: RPMI-8226 multiple myeloma cell line; experiment: Anti-proliferation assay (ATPLite, 72 h); assay type: cell-based, human; design: key: S = lnfX·lnfY·ΣIdata(Idata−ILoewe), volume over Loewe additivity
Outline: as §1

[3] = system: H929 multiple myeloma cell line; experiment: Anti-proliferation assay (ATPLite, 72 h); assay type: cell-based, human; design: key: S = lnfX·lnfY·ΣIdata(Idata−ILoewe), volume over Loewe additivity
Outline: as §1

[4] = system: RPMI-8226, H929, MM.1S and MM.1R MM cell lines; experiment: Anti-proliferation assay, statements across MM cell lines; assay type: cell-based, human; conditions: crossed with adenosine receptor agonists
Method: The MM.1S, MM.1R, H929, MOLP-8, EJM, INA-6, ANBL6, KSM-12-PE, OPM2, and RPMI-8226 multiple myeloma cell lines, as well as the Burkitt's lymphoma cell line GA-10 and the non-Hodgkin's lymphoma cell lines Farage, SU-DHL6, and Karpas 422 were cultured at 37° C. and 5% CO2 in RPMI-1640 media supplemented with 10% FBS. ANBL6 and INA-6 culture media was also supplemented with 10 ng/ml IL-6. The OCI-ly10 cell line was cultured using RPMI-1640 media supplemented with 20% human serum. MM.1S, MM.1R, OCI-ly10, Karpas 422, and SU-DHL6 cells were provided by the Dana Farber Cancer Institute. H929, RPMI-8226, GA-10, and Farage cells were from ATCC (Cat #'s CCL-155, CRL-9068, CRL-2392 and CRL-2630 respectively). MOLP-8, EJM, KSM-12-PE, and OPM2 were from DSMZ. The ANBL6 and INA-6 cell lines were provided by the M. D. Anderson Cancer Research Center.
Compounds were prepared in DMSO at 1000× the highest desired concentration. Master plates were generated consisting of serially diluted compounds in 2- or 3-fold dilutions in 384-well format. For single agent dose response curves, the master plates consisted of 9 individual compounds at 12 concentrations in 2- or 3-fold dilutions. For combination matrices, master plates consisted of individual compounds at 6 or 9 concentrations at 2- or 3-fold dilutions.
Cells were added to 384-well plates 24 hours prior to compound addition such that each well contained 2000 cells in 35 μL of media. Master plates were diluted 100× (1 μL into 100 μL) into 384-well dilution plates containing only cell culture media. 4.5 μL from each dilution plate was added to each assay plate for a final dilution of 1000×. To obtain combination data, two master plates were diluted into the assay plates. Following compound addition, assay plates were kept at 37° C. and 5% CO2 for 72 hours. Thirty microliters of ATPLite (Perkin Elmer) at room temperature was then added to each well. Final amount of ATP was quantified within 30 minutes using ATPLite luminescent read-out on an Envision 2103 Multilabel Reader (Perkin Elmer). Measurements were taken at the top of the well using a luminescence aperture and a read time of 0.1 seconds per well.
The Loewe additivity model was used to quantify combination effects. Combinations were ranked initially by Additivity Excess Volume, which is defined as ADD Volume=ΣCX, CY (Idata−ILoewe). where ILoewe(CX, CY) is the inhibition that satisfies (CX/ECX)+(CY/ECY)=1, and ECX,Y are the effective concentrations at ILoewe for the single agent curves. A “Synergy Score” was also used, where the Synergy Score S=log fX log fY ΣIdata(Idata−ILoewe), summed over all non-single-agent concentration pairs, and where log fX,Y is the natural logarithm of the dilution factors used for each single agent. This effectively calculates a volume between the measured and Loewe additive response surfaces, weighted towards high inhibition and corrected for varying dilution factors. An uncertainty σS was calculated for each synergy score, based on the measured errors for the Idata values and standard error propagation.

COc1cc(-c2ccc(=O)[nH]n2)ccc1OC(F)F [Zardaverine, 6-(4-(difluoromethoxy)-3-methoxyphenyl)-3(2H)-Pyridazinone]
synergy (score), PDEi × HE-NECA ([1]; 6×6 cross of PDE inhibitor or PDE inhibitor mixture with HE-NECA, MM.1S): 4.39
inhibition at 1.89 µM ([1]; Homo sapiens, MM1.S, Zardaverine 1.89 μM, Cl-IB-MECA conc. (μM), read-out: Percent inhibition of ATP in MM.1S cells): 0.11%
inhibition at 3.79 µM ([1]; Homo sapiens, MM1.S, Zardaverine 3.79 μM, Cl-IB-MECA conc. (μM), read-out: Percent inhibition of ATP in MM.1S cells): -1.8%
inhibition at 7.58 µM ([1]; Homo sapiens, MM1.S, Zardaverine 7.58 μM, Cl-IB-MECA conc. (μM), read-out: Percent inhibition of ATP in MM.1S cells): 13%
inhibition at 15.2 µM ([1]; Homo sapiens, MM1.S, Zardaverine 15.2 μM, Cl-IB-MECA conc. (μM), read-out: Percent inhibition of ATP in MM.1S cells): 5.1%
inhibition at 30.3 µM ([1]; Homo sapiens, MM1.S, Zardaverine 30.3 μM, Cl-IB-MECA conc. (μM), read-out: Percent inhibition of ATP in MM.1S cells): 14%
synergy score ([1]; PDE inhibitor crossed with (S) ENBA, MM.1S): 2.59
synergy score ([1]; PDE inhibitor crossed with Chloro-IB-MECA, MM.1S): 3.71
synergy score ([1]; PDE inhibitor crossed with HE-NECA, MM.1S): 4.39
synergy score ([1]; in combination with adenosine receptor agonist CGS-21680, MM.1S): 3.64
synergy score ([1]; in combination with adenosine receptor agonist HE-NECA, MM.1S): 4.39
synergy score ([1]; in combination with adenosine receptor agonist regadenoson, MM.1S): 1.45
synergy score ([2]; in combination with adenosine receptor agonist CGS-21680, RPMI 8226): 0.13
synergy score ([2]; in combination with adenosine receptor agonist HE-NECA, RPMI-8226): 0.43
synergy score ([2]; in combination with adenosine receptor agonist regadenoson, RPMI 8226): 0.52
synergy (score), PDEi × HE-NECA ([3]; 6×6 cross of PDE inhibitor or PDE inhibitor mixture with HE-NECA, H929): 3.39
synergy score ([3]; PDE inhibitor crossed with (S) ENBA, H929): 4.02
synergy score ([3]; PDE inhibitor crossed with Chloro-IB-MECA, H929): 2.97
synergy score ([3]; PDE inhibitor crossed with HE-NECA, H929): 3.39
synergy score ([3]; in combination with adenosine receptor agonist CGS-21680, H929): 3.75
synergy score ([3]; in combination with adenosine receptor agonist HE-NECA, H929): 3.39
synergy score ([3]; in combination with adenosine receptor agonist regadenoson, H929): 1.02
rank of synergy scores among PDE inhibitors [4]: highest synergy scores
